Data reported in patent publication US8575135B2 (Gilead Sciences, Inc., priority 2011, dated 2013).
Where two headings read alike, the source gives them in different places.

Key:
[1] = system: stable HCV 1a RLuc replicon cells (genotype 1a H77 replicon); assay: microbe, parasite or virus in culture; type: cell-based; conditions: Hepatitis C virus
[2] = system: 1a Pi-Rluc replicon with Q30R in genotype 1a NS5A; assay: microbe, parasite or virus in culture; type: cell-based, HCV
In short: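 Renilla luciferase replicon assay: 1a Pi-RLuc replicon carrying NS5A Q30R, transfected transiently into cured-51 (Huh-7-derived) cells.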

[3] = system: NS5A chimeric genotype 1b Con1 replicon with genotype 3a S52 strain NS5A gene; assay: microbe, parasite or virus in culture; type: cell-based, HCV
In short: (§1)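 Genotype 3a (S52) and 4a (ED43) NS5A chimeras use 1b Con1 Pi-RLuc replicons, transfected transiently; 2b MD2b-1 NS5A chimera (M31) uses 2a JFH-1 RLuc-Neo replicon, transient or stable.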

[4] = system: NS5A chimeric genotype 2a JFH-1 replicon with genotype 2b MD2b-1 strain NS5A gene (M31 present); assay: microbe, parasite or virus in culture; type: cell-based, HCV
In short: as §1

[5] = system: NS5A chimeric genotype 2a JFH-1 replicon with genotype 2a J6 strain NS5A gene (M31 present); assay: microbe, parasite or virus in culture; type: cell-based, HCV
[6] = system: stable HCV 2a JFH-1 Rluc replicon cells (L31 present in NS5A); assay: microbe, parasite or virus in culture; type: cell-based
[7] = IV and PO single dose pharmacokinetic studies in SD rats; type: in vivo; conditions: male, Sprague-Dawley, rat, plasma, IV infusion 1 mg/kg vs oral gavage 2 mg/kg, read-out: Rat % F
Procedure: IV and PO Single Dose Pharmacokinetic Studies in SD Rats: The pharmacokinetics of selected compounds was characterized in male Sprague-Dawley (SD) rats (250-300g). […] The intravenous (IV) dosing vehicle was 5% ethanol, 35% polyethylene glycol 400 (PEG 400) and 60% water pH 2.0. […] Serial blood samples (approximately 0.3 mL each) were collected from jugular vein or other suitable vein at specified time points. […] The blood samples were collected into Vacutainer™ tubes containing EDTA-K3 as the anti-coagulant and were centrifuged at approximately 4° C. to obtain plasma. The plasma samples were stored at −20° C. until analysis by LC/MS/MS. A bioanalytical method utilizing high performance liquid chromatography coupled to tandem mass spectrometry (LC/MS/MS) was developed for analysis of the selected compound in rat plasma. Detection was performed using selected reaction monitoring (SRM); […] Standard curve and quality control samples were prepared in male rat plasma and processed in the same way as the test samples to generate quantitative data. Pharmacokinetic parameters were generated using non-compartmental pharmacokinetic analysis (Phoenix WinNonlin, version 6.3). Values below the lower limit of quantification (LLOQ) were assigned a value of zero if predose and treated as missing thereafter. Area under the curve (AUC) was calculated using the linear trapezoidal rule. The oral bioavailability (% F) was determined by comparison of the area under the curve (AUC) of the compound and/or a metabolite generated in plasma following oral administration to that generated following intravenous administration.

[8] = system: stable HCV 1b RLuc replicon cells (genotype 1b Con1 replicon); assay: microbe, parasite or virus in culture; type: cell-based
[9] = system: NS5A chimeric genotype 1b Con1 replicon with genotype 4a ED43 strain NS5A gene; assay: microbe, parasite or virus in culture; type: cell-based, HCV
[10] = Hepatitis C virus, read-out: 1a Q30R
[11] = Hepatitis C virus, read-out: 1a Q30R (nM)
[12] = Hepatitis C virus, read-out: 3a
[13] = Hepatitis C virus, read-out: 3a (nM)
[14] = Hepatitis C virus, read-out: 2b
[15] = Hepatitis C virus, read-out: 2b (s) (nM)
[16] = Hepatitis C virus, read-out: 2b (t) (nM)
[17] = Hepatitis C virus, read-out: 2a J6
[18] = Hepatitis C virus, read-out: 2a Jb (t) (nM)
[19] = Hepatitis C virus, read-out: 2a JFH
[20] = Hepatitis C virus, read-out: 2a JFH (nM)
[21] = Hepatitis C virus, read-out: 1b (nM)
[22] = Hepatitis C virus, read-out: 2a J6 (s) (nM)
[23] = Hepatitis C virus, read-out: 4a
[24] = Hepatitis C virus, read-out: 4a (s) (nM)
[25] = Hepatitis C virus, read-out: 4a (t) (nM)

Compound	EC50 ([1]; read-out: 1a) [nM]	EC50 ([1]; read-out: 1a (nM)) [nM]	EC50 [2, 10] [nM]	EC50 [2, 11] [nM]	EC50 [3, 12] [nM]	EC50 [3, 13] [nM]	EC50 [4, 14] [nM]	EC50 [4, 15] [nM]	EC50 [4, 16] [nM]	EC50 [5, 17] [nM]	EC50 [5, 18] [nM]	EC50 [6, 19] [nM]	EC50 [6, 20] [nM]	EC50 [8, 21] [nM]	EC50 [5, 22] [nM]	EC50 [9, 23] [nM]	EC50 [9, 24] [nM]	EC50 [9, 25] [nM]	further results
COC(=O)N[C@H](C(=O)N1[C@@H](C)CC[C@H]1c1ncc(-c2ccc3c(c2)COc2cc4c(ccc5nc([C@@H]6C[C@H](C)CN6C(=O)[C@H](NC(=O)OC)c6ccccc6)[nH]c54)cc2-3)[nH]1)C(C)C [Compound 617]	< 1	0.009	< 1	0.024	< 1	0.019	< 1	0.011	0.013	< 1	0.032	< 1	0.004						bioavailability [7]: 14.4%
COC[C@H]1C[C@@H](c2nc3ccc4cc5c(cc4c3[nH]2)OCc2cc(-c3cnc([C@@H]4CCCN4C(=O)[C@@H](NC(=O)OC)C(C)C)[nH]3)ccc2-5)N(C(=O)[C@H](NC(=O)OC)c2ccccc2)C1 [Example LR-1, methyl{2-[2-{9-[2-(1-{2-[(methoxycarbonyl)amino]-3-methylbutanoyl}pyrrolidin-2-yl)-1H-imidazol-5-yl]-1,11-dihydroisochromeno[4′,3′:6,7]naphtho[1,2-d]imidazol-2-yl}-4-(methoxymethyl)pyrrolidin-1-yl]-2-oxo-1-phenylethyl}carbamate]	< 1	0.011	< 1	0.015	< 1	0.013	< 1	0.024	0.01	< 1	0.018	< 1	0.005	0.016	0.048	< 1	0.012	0.01	
COC[C@H]1C[C@@H](c2nc3ccc4cc5c(cc4c3[nH]2)OCc2cc(-c3cnc([C@@H]4CC6C[C@H]6N4C(=O)[C@@H](NC(=O)OC)C(C)C)[nH]3)ccc2-5)N(C(=O)[C@H](NC(=O)OC)c2ccccc2)C1 (stereo partly shown) [Example LT, methyl{2-[2-{9-[2-(2-{2-[(methoxycarbonyl)amino]-3-methylbutanoyl}-2-azabicyclo[3.1.0]hex-3-yl)-1H-imidazol-5-yl]-1,11-dihydroisochromeno[4′,3′:6,7]naphtho[1,2-d]imidazol-2-yl}-4-(methoxymethyl)pyrrolidin-1-yl]-2-oxo-1-phenylethyl}carbamate]	< 1	0.009	< 1	0.01	< 1	0.012	< 1	0.039	0.009	< 1	0.01	< 1	0.004	0.016	0.047	< 1	0.009	0.015	
COC(=O)N[C@H](C(=O)N1CCC[C@H]1c1nc2c(ccc3cc4c(cc32)OCc2cc(-c3cnc([C@@H]5CCCN5C(=O)[C@H](NC(=O)OC)c5ccccc5)[nH]3)ccc2-4)[nH]1)C(C)C [Example MD]	< 1	0.035	< 1	0.192	< 1	0.006	< 1	0.038	0.016	< 1	0.073	< 1	0.006	0.033	0.439	< 1	0.035	0.011	
COC(=O)N[C@H](C(=O)N1CCC[C@H]1c1ncc(-c2ccc3c(c2)COc2cc4c(cc2-3)CCc2[nH]c([C@@H]3CCCN3C(=O)[C@@H](NC(=O)OC)C(C)C)nc2-4)[nH]1)C(C)C [Example ME]	< 1	0.033	1 to 44	2.51	< 1	0.015	< 1	0.701	0.198	1 to 4.99	3.43	< 1	0.012	0.049	16.1	< 1	0.029	0.016	
COC(=O)N[C@H](C(=O)N1CCC[C@H]1c1nc2c([nH]1)CCc1cc3c(cc1-2)OCc1cc(-c2cnc([C@@H]4CCCN4C(=O)[C@H](NC(=O)OC)c4ccccc4)[nH]2)ccc1-3)C(C)C [Example MF, methyl[1-(2-{5-[2-(1-{[(methoxycarbonyl)amino]-3-methyl-1-oxobutan-2-yl}pyrrolidin-2-yl)-1,4,5,11-tetrahydroisochromeno[4′,3′:6,7]naphtho[1,2-d]imidazol-9-yl]-1H-imidazol-2-yl}pyrrolidin-1-yl)-phenyl-1-oxoacet-2-yl]carbamate]	< 1	0.059	< 1	0.768	< 1	0.011	< 1	0.083		< 1	0.476	< 1	0.012	0.058	2.14	< 1		0.025	
COC(=O)N[C@H](C(=O)N1CCC[C@H]1c1ncc(-c2ccc3c(c2)COc2cc4c(cc2-3)CCc2[nH]c([C@@H]3CCCN3C(=O)[C@H](NC(=O)OC)c3ccccc3)nc2-4)[nH]1)C(C)C [Example MG]	< 1	0.054	< 1	0.663	< 1	0.01	< 1	0.07		< 1	0.337	< 1	0.012	0.055	2.29	< 1	0.08	0.024	
COC[C@H]1C[C@@H](c2ncc(-c3ccc4c(c3)COc3cc5c(ccc6nc([C@@H]7C[C@H]8C[C@H]8N7C(=O)[C@H](NC(=O)OC)c7ccccc7)[nH]c65)cc3-4)[nH]2)N(C(=O)[C@@H](NC(=O)OC)C(C)C)C1 [Example MV]	< 1	0.01	< 1	0.012	< 1	0.011	< 1		0.041	< 1	0.047	< 1	0.004	0.014	0.034	< 1	0.011		
dimethyl (2S,2′S)-1,1′-((2S,2′S)-2,2′1-pyrrolidin-2-yl)-5H-naphtho[c,g]chromeno[8,9-d]imidazol-9-yl)-1H-imidazol-2-yl)pyrrolidin-1-yl))bis(3-methyl-1-oxobutane-2,1-diyl)dicarbamate [Example MC]																			EC50 ([8]; read-out: 1b): 0.017 nM; EC50 ([2]; 1a Q30R resistance mutant, EC50 range, read-out: 1a Q30R): < 1 nM; EC50 ([2]; 1a Q30R resistance mutant, read-out: 1a Q30R): 0.99 nM; EC50 ([3]; genotype 3a, EC50 range, read-out: 3a): < 1 nM; EC50 ([3]; genotype 3a, read-out: 3a): 0.004 nM; EC50 ([4]; genotype 2b, EC50 range, transiently transfected cells (t), else stably replicating cells (s), read-out: 2b): < 1 nM; EC50 ([4]; stably replicating cells (s), read-out: 2b (s)): 0.375 nM; EC50 ([4]; transiently transfected cells (t), read-out: 2b (t)): 0.162 nM; EC50 ([5]; genotype 2a J6, EC50 range, transiently transfected cells (t), else stably replicating cells (s), read-out: 2a J6): 1 to 4.99 nM; EC50 ([5]; stably replicating cells (s), read-out: 2a J6 (s)): 3.52 nM; EC50 ([5]; transiently transfected cells (t), read-out: 2a Jb (t)): 1.16 nM; EC50 ([9]; genotype 4a, EC50 range, transiently transfected cells (t), else stably replicating cells (s), read-out: 4a): < 1 nM; EC50 ([9]; stably replicating cells (s), read-out: 4a (s)): 0.028 nM; EC50 ([9]; transiently transfected cells (t), read-out: 4a (t)): 0.008 nM; EC50 ([6]; genotype 2a JFH, EC50 range, read-out: 2a JFH): < 1 nM; EC50 ([6]; genotype 2a JFH, read-out: 2a JFH): 0.004 nM
